Assay results as given in patent US20100048714A1, “Methods and Compositions Related to Inhibition of Ceramide Synthesis” (University of Utah Research Foundation, priority 2006, published 2010).

Experiments:
[1] = system: soleus muscles; assay: Isolated soleus muscle strips incubated with free fatty acids; conditions: cycloserine 1 mM or myriocin 10 μM
[2] = system: DIO mice; assay: Myriocin in non-diabetic insulin resistance model, DIO mice; assay type: in vivo
[3] = system: Sprague dawley rats; assay: Hyperinsulinemic euglycemic clamps of dexamethasone treated rats; assay type: in vivo, rat; conditions: for Insulin, During Clamp / FFA / Glucose, Before Clamp / Insulin, Before Clamp: plasma, mean ± standard error, n=4; for Insulin, During Clamp: steady state; for FFA: Before Clamp by layout
Description: (A) Sprague-Dawley rats were treated with myriocin (300 μg/Kg, IP, solid bars) or saline (open bars) for two weeks prior to giving administering dexamethasone (40 μg/Kg, IP) or vehicle (5% ethanol) every 12 hours for 36 hours. Animals were euthanized by CO2 inhalation, livers were removed, and ceramide levels were assessed as described in SOM-Methods. Shown are mean ceramide levels+/−S.E.M, n=6 per group. The asterisk denotes that the sample was statistically different from vehicle-treated controls, p<0.05, student's t-test. (B) Livers were obtained as in A, above, and protein and mRNA were extracted as described in SOM-Methods. Levels of transcripts (solid bars) encoding serine palimitoyl transferase isoforms 1 and 2 (SPT1 and SPT2), dihydroceramide synthases (DCS) TL1, UOG, and TRH3, glucosylceramide synthase (GCS), and acid ceramidase (AC) transcripts were obtained by reverse-transcriptase polymerase chain reaction, normalized to β-actin. SPT2 protein levels (white bars) were detected by immunoblotting with an antibody from Cayman Chemicals (Ann Arbor, Mich.) and quantified on a Kodak Image Station 2000R (Rochester, N.Y.). Data represent the fold-change in transcript or protein in dexamethasone-treated animals relative to vehicle controls. […] (C and D) Rats were challenged with glucose (1 g/kg) given intraperitoneally (IP) following treatment with dexamethasone (squares), ethanol carrier (triangles), myriocin (open shapes), or saline (solid shapes) as in A, above. Tail vein blood (3 μl) was sampled for glucose (C)(using the Glucometer Elite from Bayer Corp., Tarrytown, N.Y.) or insulin (D) (using an Elisa kit from Linco Diagnostics, Springfield, Mo.). […] (E-G) Hyperinsulinemic euglycemic clamps were performed on animals (n=4 per group) treated as in A, above, as described in SOM-Methods. Data from animals receiving myriocin are depicted in solid bars. (E) The glucose infusion rate required to maintain normal glycemia during insulin infusion ([…]) was calculated as the average infusion rate during the 60 minute steady state. (F) Hepatic glucose output was estimated by the disappearance of [^14C] glucose from a bolus dose given during the steady state minus the glucose infusion rate. (G) Disappearance of a bolus dose of [^3H] 2-deoxyglucose from the bloodstream was used to estimate the rate of whole body glucose uptake.
(§1) To definitively evaluate effects on insulin sensitivity, as well as to distinguish whether the treatment protocols differentially affected glucose uptake in skeletal muscle or hepatic output by the liver, hyperinsulinemic-euglycemic clamps with D-[U-^14C] glucose and 2-deoxy-D-[2,6-^3H] glucose tracers were performed.
Clamps were performed in conscious unrestrained animals using swivels and tethers (Instech, Plymouth Meeting, Pa.) to allow uninterrupted movement of the animal without disruption of infusion lines. Hyperinsulinemia was initiated by intravenous infusion of insulin (10 mU/kg/min at a flow rate of 4 μL/min). Blood was sampled from arterial lines in 7 minute intervals and analyzed with a Beckman Glucose analyzer II (Beckman Coulter, Fullerton, Calif.). Euglycemia was maintained by variable infusion of 20% dextrose. Steady state was achieved approximately 90 minutes after initiating hyperinsulinemia and maintained for 30 minutes. Glucose infusion rates were calculated as the average glucose infusion rate during the 30 minute steady state. Additional blood samples were taken before initiating hyperinsulinemia and at the end of the clamp for analysis of insulin and free fatty acids.

[4] = system: male Sprague Dawley Rats; assay: Insulin tolerance test in dexamethasone-treated rats; assay type: in vivo, rat; conditions: dexamethasone 400 μg/kg IP 24 and 12 hours prior; myriocin 0.3 mg/kg/2 days for 1 week
Description: Following an overnight fast, insulin was injected (20 U, IP) and whole blood glucose was determined by glucometer. Values are presented as the ratio of measured blood glucose to fasting blood glucose.
as §1

[5] = system: Zucker fa/fa rat; assay: Myriocin in non-diabetic insulin resistance model, Zucker fa/fa rat; assay type: in vivo
[6] = clamp, dexamethasone with or without myriocin pretreatment
[7] = Dexamethasone-treated (Saline or Myriocin)

CCCCCCC(=O)CCCCCC/C=C/C[C@@H](O)[C@H](O)[C@@](N)(CO)C(=O)O [Myriocin] was tested, and the “linoleate effects on 2-DOG uptake” value ([1]; 1 mM linoleate) was “did not alter linoleate effects”, the “linoleate effects on DAG accumulation” value ([1]; 1 mM linoleate) was “did not alter linoleate effects” and the “DAG in palmitate-treated muscles” value ([1]; 1 mM palmitate) was “without affecting DAG”. The “palmitate effect on insulin-stimulated 2-deoxyglucose uptake” value ([1]; 1 mM palmitate) was “completely negated the antagonistic effects of palmitate”, the palmitate-induced ceramide accumulation ([1]; 1 mM palmitate) was “prevented palmitate-induced ceramide accumulation” and the glucose homeostasis [2] was “improved glucose homeostasis”. For the same molecule, the insulin levels [2] was “lowered insulin levels”, the “2-deoxyglucose uptake into skeletal muscle / insulin resistance in skeletal muscle” value [3, 6] was “partially blocked” and the “insulin-induced suppression of hepatic glucose output” value [3, 6] was “completely prevented”. For the same molecule, the “insulin-responsiveness (glucose infusion rate, hepatic glucose output, whole body glucose uptake; FIG. 1E-G)” value ([3]; clamp, n=4 per group, p<0.05) was “significantly restored insulin-responsiveness”, the “Insulin, During Clamp” value [3, 7] was 5.4 ± 1.4 ng/mL and the “Insulin, During Clamp” value ([3]; Dexamethasone: Control) was 6.4 ± 0.5 ng/mL. For the same molecule, the FFA [3, 7] was 176 ± 34 µM, the FFA ([3]; Dexamethasone: Control) was 258 ± 29 µM and the “Glucose, Before Clamp” value [3, 7] was 137.0 ± 2.1 mg/dL. The “Insulin, Before Clamp” value [3, 7] was 2.34 ± 0.49 ng/mL, the “Glucose, Before Clamp” value ([3]; Dexamethasone: Control) was 123.6 ± 7.7 mg/dL and the “Insulin, Before Clamp” value ([3]; Dexamethasone: Control) was 2.05 ± 0.25 ng/mL. The “insulin sensitivity in insulin tolerance tests” value [4] was “fully negated”, the glucose homeostasis [5] was “improved glucose homeostasis” and the insulin levels [5] was “lowered insulin levels”.
